# Patent US12287338B2, “Method and compositions for predicting anti-cancer efficacy of compounds targeting apoptosis pathway” (Ascentage Pharma (Suzhou) Co., Ltd., priority 2020, dated 2025)
# Experiments:
# Type in all cases: cell-based
# [1] = system: Bcl-xL:BIM and Bcl-2:BIM complex; test: Bcl-2:BIM and Bcl-xL:BIM complex analysis by MSD advanced ELISA in RS4; 11 cells; conditions: 11 cell line, 24 hours, 0.025, 0.04 and 0.06 uM
# Experimental: (§1) A diffuse large B cell lymphoma line, Toledo, and an acute lymphocytic leukemia line, RS4; 11, were chosen for the study. Cells were treated for 24 hours with Compound B4 or ABT-737 at indicated concentrations (0.025 uM, 0.04 uM and 0.06 uM, respectively) and harvested for complex analysis. Both Bcl-2:BIM and Bcl-xL:BIM complex were analyzed using MSD advanced ELISA methods.
# [2] = target: T1, Bcl-xL:BIM and Bcl-2:BIM complex (Homo sapiens, UniProt Q07817); test: Bcl-2:BIM and Bcl-xL:BIM complex analysis by MSD advanced ELISA in Toledo cells; conditions: Toledo and RS4; 11 cell lines (FIGS. 4A, 4B), 24 hours
# T1 construct: A diffuse large B cell lymphoma line, Toledo, and an acute lymphocytic leukemia line, RS4; endogenous in cells; host or cells: Toledo
# T1 sequence (Q07817 whole entry, one chain of several): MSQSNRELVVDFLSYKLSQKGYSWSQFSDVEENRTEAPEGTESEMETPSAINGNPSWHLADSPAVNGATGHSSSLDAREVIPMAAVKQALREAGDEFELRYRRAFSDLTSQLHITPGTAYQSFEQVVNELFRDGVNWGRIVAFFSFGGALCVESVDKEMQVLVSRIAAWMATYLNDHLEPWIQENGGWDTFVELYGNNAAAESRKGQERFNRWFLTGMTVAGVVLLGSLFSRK
# Experimental: as §1
# [3] = system: Bcl-xL:BIM and Bcl-2:BIM complex; test: as above; conditions: Toledo cell line, 24 hours, 0.025, 0.04 and 0.06 uM
# Experimental: as §1
smiles,measurement,setting,value
"Cc1c(S(C)(=O)=O)c(-c2cc(F)cc(N3CCN(c4ccc(NS(=O)(=O)c5ccc(N[C@H](CCN6CCC(C(=O)O)CC6)CSc6ccccc6)c(S(=O)(=O)C(F)(F)F)c5)cc4)CC3)c2)c(-c2ccc(Cl)cc2)n1C(C)C [Compound B4, (R)-1-(3-(4-(N-(4-(4-(3-(2-(4-chlorophenyl)-1-isopropyl-5-methyl-4-(methylsulfonyl)-1H-pyrrol-3-yl)-5-fluorophenyl)piperazin-1-yl)phenyl)sulfamoyl)-2-(trifluoromethylsulfonyl)phenylamino)-4-(phenylthio)butyl)piperidine-4-carboxylic acid]",disruption of Bcl-xL:BIM vs Bcl-2:BIM complex,[1],more potently disrupted Bcl-xL:BIM than Bcl-2:BIM complex
same,disruption of Bcl-xL:BIM complex compared with ABT-737,[2],disrupted Bcl-xL:BIM complex more intensely than ABT-737
same,disruption of Bcl-xL:BIM vs Bcl-2:BIM complex,[3],more potently disrupted Bcl-xL:BIM than Bcl-2:BIM complex
